Legend:
D(2) dopamine receptor = D(2) dopamine receptor (Homo sapiens, UniProt P14416); experiment: Agonist activity at C-terminal RLuc8-fused D2 long receptor (unknown origin) transfected in human HEK293T cells co-expressing N-terminal Venus-tagged beta-arrestin2 assessed as increase in beta-arrestin2 recruitment measured after 5 mins in presence of coelenterazine H by BRET assay
D(1A) dopamine receptor = D(1A) dopamine receptor (Homo sapiens, UniProt P21728); experiment: Agonist activity at D1R (unknown origin) transfected in human HEK293T cells assessed as increase in cAMP accumulation incubated for 2 hrs by cAMP Glo-sensor assay
Sequence of D(1A) dopamine receptor (P21728 whole entry): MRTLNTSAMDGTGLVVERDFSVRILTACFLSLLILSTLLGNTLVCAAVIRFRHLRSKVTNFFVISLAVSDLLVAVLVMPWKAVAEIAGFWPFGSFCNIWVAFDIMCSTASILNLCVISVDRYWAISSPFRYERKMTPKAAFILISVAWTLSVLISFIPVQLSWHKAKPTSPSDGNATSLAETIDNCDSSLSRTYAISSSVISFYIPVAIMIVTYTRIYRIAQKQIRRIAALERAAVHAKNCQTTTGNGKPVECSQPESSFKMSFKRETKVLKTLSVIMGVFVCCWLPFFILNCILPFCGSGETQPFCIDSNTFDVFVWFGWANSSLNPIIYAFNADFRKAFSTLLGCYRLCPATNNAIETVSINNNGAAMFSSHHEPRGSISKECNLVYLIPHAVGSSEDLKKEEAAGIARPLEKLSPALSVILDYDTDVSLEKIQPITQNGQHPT

Sequence of D(2) dopamine receptor (P14416 whole entry, the tested form may be a part): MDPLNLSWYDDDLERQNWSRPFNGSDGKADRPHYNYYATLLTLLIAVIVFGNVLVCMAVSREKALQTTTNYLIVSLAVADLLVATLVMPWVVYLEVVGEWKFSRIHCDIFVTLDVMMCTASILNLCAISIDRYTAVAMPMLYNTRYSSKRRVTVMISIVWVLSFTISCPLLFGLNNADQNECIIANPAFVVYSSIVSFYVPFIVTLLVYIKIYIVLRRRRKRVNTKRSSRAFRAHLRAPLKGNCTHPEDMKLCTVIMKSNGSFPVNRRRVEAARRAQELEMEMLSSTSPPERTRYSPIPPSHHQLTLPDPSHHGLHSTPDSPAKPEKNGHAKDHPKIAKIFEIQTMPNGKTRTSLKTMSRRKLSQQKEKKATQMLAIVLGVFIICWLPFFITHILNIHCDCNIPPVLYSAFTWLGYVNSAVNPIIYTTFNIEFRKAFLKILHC

Row | Structure (SMILES) | EC50 (D(2) dopamine receptor) | EC50 (D(1A) dopamine receptor)
1 | CC(=O)Oc1c(Br)cc2c(c1OC(C)=O)-c1cccc3c1[C@@H](C2)N(C)CC3 | 1260 nM | 
2 | CN1CCc2cccc3c2[C@H]1Cc1ccc2c(c1-3)OCO2 |  | 100 nM
